Assay [1] concerns the target T1, ALDH1A1 (Homo sapiens, UniProt P00352).
T1 sequence (P00352 1-501): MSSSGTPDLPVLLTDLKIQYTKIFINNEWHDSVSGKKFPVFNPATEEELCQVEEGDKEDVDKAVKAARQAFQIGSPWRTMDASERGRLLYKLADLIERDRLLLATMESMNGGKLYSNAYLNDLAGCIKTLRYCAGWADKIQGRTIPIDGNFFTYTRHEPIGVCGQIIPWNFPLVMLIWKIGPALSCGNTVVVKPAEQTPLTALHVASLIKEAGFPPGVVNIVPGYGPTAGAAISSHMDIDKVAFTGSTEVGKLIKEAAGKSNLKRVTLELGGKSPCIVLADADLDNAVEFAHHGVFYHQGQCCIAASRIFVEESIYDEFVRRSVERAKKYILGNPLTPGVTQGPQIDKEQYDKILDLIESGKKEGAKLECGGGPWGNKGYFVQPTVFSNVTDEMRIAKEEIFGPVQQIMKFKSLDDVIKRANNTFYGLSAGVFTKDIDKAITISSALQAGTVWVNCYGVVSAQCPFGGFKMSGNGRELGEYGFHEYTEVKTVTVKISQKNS
The assay is described as follows: Inhibitor screening using purified enzymes: ALDH1A1 activity, retinoic acid production by HPLC. Particulars: purified enzyme. Type of assay: biochemical. The text has this: (§1) ALDHs were cloned into bacterial expression vector for in vitro enzyme assays and into mammalian expression vectors for cell-based enzyme assays. Human ALDH1A1 cDNA and human ALDH2 cDNA were purchased from OriGene (SC321535) and Open Biosystems (MHS4771-99611182), respectively. and human ALDH1A2 cDNA was cloned from human testis RNA using RT-PCR (Population Division of the Department of Economic and Social Affairs of the United Nations Secretariat. World Population prospects: the 2008 revision. Available at http://www.un.org/esa/population/ (Retrieved Sep. 30, 2011)). For bacterial expression, an open reading frame of ALDH1A1 and ALDH2 were subcloned into the pETite vector (Lucigen) with a 5′ histidine-tag and that of ALDH1A2 into a pET28 vector (Novagen) with a 3′ histidine-tag. Correct frame and sequences were verified through DNA sequencing (UW DNA sequencing facility). ALDHs were induced with 1 mM IPTG and purified using His.Bind resin (Novagen, San Diego, Calif.) and stored in a buffer containing 20 mM Hepes (pH 8), 150 mM KCl and 1 mM EDTA as previously described (Fierce, Y., de Morais Vieira, M., Piantedosi, R., Wyss, A., Blaner, W. S., and Paik, J. (2008) In vitro and in vivo characterization of retinoid synthesis from beta-carotene. Archives of biochemistry and biophysics 472, 126-138).
ALDH1A1 and ALDH1A2 activity was determined as previously reported (Beedle M T, Stevison F, Zhong G, Topping T, Hogarth C, Isoherranen N, Griswold M D. Sources of All-Trans Retinal Oxidation Independent of the Aldehyde Dehydrogenase 1A Isozymes Exist in the Postnatal Testis. Biol Reprod. 2018 Sep. 21. doi: 10.1093/biolre/ioy200). Briefly, purified enzymes were incubated in a buffer containing 10 mM HEPES buffer (pH 8.0), 150 mM potassium chloride and 2 mM EDTA with 2 mM NAD. Retinoic acid production was determined using HPLC as previously reported (Amory J K, Muller C H, Shimshoni A J, Isoherranen N, Paik J, Moreb J S, Amory D W, Evanoff R, Goldstein A S, Griswold M D. Suppression of spermatogenesis by bisdichloroacetyldiamines is mediated by inhibition of testicular retinoic acid biosynthesis. Journal of Andrology 2011; 32(1):111-119). Inhibitors were diluted in DMSO and added to the reactions. […] For initial screening of inhibitors for ALDH1A2, 1 μg ALDH1A2, 5 μM all-trans-retinal and 5 μM inhibitors were incubated for 15 min at 37° C. […] For this purpose, 0.5 μg ALDH1A2 and […] were incubated for 5 minutes at 37° C. with varying concentrations of inhibitors. To determine specificity toward ALDH1A2, the IC50 for […]

The target of assay [2] is T2, ALDH1A2 (Homo sapiens, UniProt O94788).
T2 sequence (O94788 1-518): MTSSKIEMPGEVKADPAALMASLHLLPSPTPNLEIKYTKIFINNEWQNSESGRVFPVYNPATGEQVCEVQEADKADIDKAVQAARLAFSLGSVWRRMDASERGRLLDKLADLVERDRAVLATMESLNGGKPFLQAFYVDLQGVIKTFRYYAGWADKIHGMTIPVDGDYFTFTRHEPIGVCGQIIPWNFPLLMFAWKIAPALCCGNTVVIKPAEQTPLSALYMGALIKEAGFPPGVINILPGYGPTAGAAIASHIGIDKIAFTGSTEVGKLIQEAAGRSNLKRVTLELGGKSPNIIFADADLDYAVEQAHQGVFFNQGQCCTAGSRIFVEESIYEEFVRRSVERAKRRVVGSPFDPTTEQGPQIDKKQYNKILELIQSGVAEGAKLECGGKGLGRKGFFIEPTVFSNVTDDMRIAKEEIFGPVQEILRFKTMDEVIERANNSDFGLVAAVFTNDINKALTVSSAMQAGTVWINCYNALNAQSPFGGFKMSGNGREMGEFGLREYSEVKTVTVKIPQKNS
Put plainly: Inhibitor screening using purified enzymes: ALDH1A2 activity, retinoic acid production by HPLC (5 uM initial screen, then IC50). Type of assay: biochemical. The arrangement: histidine-tag (C); made in house; host or cells: bacterial expression (pET28 vector, IPTG induction). Particulars: purified enzyme. Put shortly: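 Purified His-tagged human enzymes in 10 mM HEPES pH 8.0, 150 mM KCl, 2 mM EDTA with 2 mM NAD, all-trans-retinal substrate; retinoic acid quantified by HPLC. ALDH1A2 initial screen: 1 μg enzyme, 5 μM retinal, 5 μM inhibitor, 15 min, 37° C; IC50 runs: 0.5 μg enzyme, 0.5 μg retinal, 5 min, 37° C.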

Assay [3] concerns the target T2, ALDH1A2. The assay is described as follows: Cell-based enzyme assay, retinoic acid production in ALDH1A2/H1299 cells. The settings on record: cell-based. Here is the method: (§2) ALDH1A1 cDNA clone was purchased transfection-ready, and ALDH1A2 full-length cDNA was subcloned into pcDNA3, a mammalian expression vector. ALDH1A1 and ALDH1A2 were transfected into H1299 cells (CRL5803, ATCC) using Lipofectamine 3000 (Invitrogen) following the manufacturer's instructions. Stably transfected cells were selected with G418 (1.2 mg/ml) and referred to as ALDH1A1/H1299 and ALDH1A2/H1299. For the cell-based enzyme assays,
(§3) H1299 cells were routinely grown in RPMI-1640 (ATCC) supplemented with 10% fetal bovine serum (Atlanta Biologicals) in a 37 C, 5% CO2, moisture-saturated atmosphere. H1299, ALDH1A1/H1299 and ALDH1A2/H1299 cells were seeded into 12-well plates (1×10^5 cells/well) and grown for 2 days to confluence. Confluent cells were treated for 20 hours in the above media excluding serum with 2 μM all-trans-retinal, and varying concentrations of inhibitors. Serum-free media was used for the treatment period to avoid retinoic acid in serum. Retinoic acid concentrations were determined from cells and media, and specificity of inhibitors was determined by comparing retinoic acid levels in the presence and absence of the inhibitors in ALDH1A1- vs. ALDH1A2-expressing cells.

In assay [4] the target is T1, ALDH1A1. The assay is described as follows: Cell-based enzyme assay, retinoic acid production in ALDH1A1/H1299 cells. The settings on record: cell-based. Here is the method: as §2, §3
A further assay deals with T3, ALDH2 (Homo sapiens, UniProt P05091).
T3 construct: histidine-tag (N); made in house; host or cells: bacterial expression (pETite vector, IPTG induction)
T3 sequence (P05091 18-517): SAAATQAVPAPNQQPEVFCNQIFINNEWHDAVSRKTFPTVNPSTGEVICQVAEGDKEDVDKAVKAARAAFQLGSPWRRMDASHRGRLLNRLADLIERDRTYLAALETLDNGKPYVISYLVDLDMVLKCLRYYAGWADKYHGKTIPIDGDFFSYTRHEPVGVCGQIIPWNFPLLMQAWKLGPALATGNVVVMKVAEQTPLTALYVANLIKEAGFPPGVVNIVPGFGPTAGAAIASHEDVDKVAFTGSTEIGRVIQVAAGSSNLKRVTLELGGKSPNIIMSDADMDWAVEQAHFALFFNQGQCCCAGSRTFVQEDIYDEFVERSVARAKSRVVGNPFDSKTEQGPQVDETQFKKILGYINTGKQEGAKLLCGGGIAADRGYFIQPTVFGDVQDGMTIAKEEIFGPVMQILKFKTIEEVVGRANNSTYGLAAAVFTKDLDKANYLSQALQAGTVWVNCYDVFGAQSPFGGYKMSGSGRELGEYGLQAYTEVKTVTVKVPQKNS
Put plainly: Purified ALDH2 assay with propanal, NADH fluorescence. Type of assay: biochemical. The settings on record: purified enzyme.
Text: as §1, with “126-138). […]” for “126-138).”
For this, 2 μg purified ALDH2, 20 μM propanal and varying concentrations of inhibitors were incubated at room temperature. Enzyme activity was determined by measuring fluorescence of NADH (Ex, 350 nm/Em, 460 nm) using a Victor3 plate reader (PerkinElmer), and initial velocity was calculated from two consecutive readings over 1 minute.

This note sets out measurements from patent US11548875B2, “Inhibitor compounds for male contraception” (University of Washington, priority 2018, dated 2023).

A value given as a limit tells only on which side of the number the result lay.

In the case of “1-[4-(4-Nitrophenyl)-3-(azocan-1-yl)]piperazin-1-yl](1-methyl-1H-pyrrol-2-yl)methanone [Compound N104]”, the concentration for half-maximal inhibition (IC50) (in general, the concentration needed to halve the response being measured) was 0.141 µM against ALDH1A1 [1] and 6.5 µM at ALDH1A2 [2].

Take “3-{4-[(Difluoroacetyl)amino]phenyl}-1-(4-cyanophenyl)-N-(3-fluorophenyl)-1H-pyrazole-4-carboxamide [Compound 279]”: the IC50 at ALDH1A1 [1] turned out to be 0.029 µM; at ALDH1A2 [2] it was 0.61 µM. Moreover, the EC50 (as a rule, the concentration that produces a half-maximal response) stood at 0.017 µM at ALDH1A2 [3] and 0.056 µM at ALDH1A1 [4].

Take `O=C(Nc1cccc(F)c1)c1cn(-c2ccccc2)nc1-c1ccc(CBr)cc1` [Compound 8-44, 3-[4-(Bromomethyl)phenyl]-N-(3-fluorophenyl)-1-phenyl-1H-pyrazole-4-carboxamide]: the IC50 on ALDH1A1 [1] is 3.9 µM; on ALDH1A2 [2], 0.72 µM.

As for `CCN(Cc1nn(-c2ccccc2)cc1C(=O)Nc1cccc(F)c1)C(=O)C(Cl)Cl` [Compound 8-54, 3-{[(Dichloroacetyl)(ethyl)amino]methyl}-N-(3-fluorophenyl)-1-phenyl-1H-pyrazole-4-carboxamide], the results for the IC50 against ALDH1A1 [1] and on ALDH1A2 [2] were 0.092 µM and 3.9 µM, respectively.

`O=C(Nc1cccc(F)c1)c1cn(-c2ccccc2)nc1-c1ccc(CNC(=O)C(Cl)Cl)cc1` [Compound 8-64, 3-(4-{[(Dichloroacetyl)amino]methyl}phenyl)-N-(3-fluorophenyl)-1-phenyl-1H-pyrazole-4-carboxamide]: the IC50 was determined as 2 µM at ALDH1A1 [1] and 0.015 µM on ALDH1A2 [2].

As to `Cc1ccc(NC(=O)c2cn(-c3ccccc3)nc2-c2ccc(F)cc2)cc1` [Compound 131, 3-(4-Fluorophenyl)-N-(4-methylphenyl)-1-phenyl-1H-pyrazole-4-carboxamide], the IC50 at ALDH1A1 [1] was determined as 0.388 µM; on ALDH1A2 [2], 3.02 µM; against ALDH2, 18.8 µM.

Turning to `Cc1ccccc1-c1nn(-c2ccccc2)cc1C(=O)Nc1cccc(F)c1` [Compound 149, N-(3-Fluorophenyl)-3-(2-methylphenyl)-1-phenyl-1H-pyrazole-4-carboxamide], the concentration for half-maximal inhibition (IC50) is 0.601 µM at ALDH1A1 [1], 2.15 µM against ALDH1A2 [2] and 4.6 µM on ALDH2.

For the compound `CCOC(=O)c1cn(-c2ccccc2)nc1-c1ccc(S(C)(=O)=O)cc1` [Compound 232, Ethyl 3-[4-(methylsulfonyl)phenyl]-1-phenyl-1H-pyrazole-4-carboxylate], the values for the EC50 at ALDH1A2 [3] and at ALDH1A1 [4] were 0.317 µM and 0.723 µM, respectively. This compound showed a concentration for half-maximal inhibition (IC50) on ALDH2 above 5 µM.

For the compound `CON(C)C(=O)c1ccc(-c2nn(-c3ccc(C#N)cc3)cc2C(=O)Nc2cccc(F)c2)cc1` [Compound 296], the IC50 amounted to 9.44 µM against ALDH1A1 [1] and 0.15 µM on ALDH1A2 [2]. Also, the EC50 on ALDH1A2 [3] amounted to 0.023 µM; at ALDH1A1 [4], 0.542 µM.

Take `N#Cc1ccc(-n2cc(C(=O)Nc3cccc(F)c3)c(-c3ccc(NC(=O)C(Cl)Cl)cc3)n2)cc1` [Compound 310, 3-{4-[(Dichloroacetyl)amino]phenyl}-1-(4-cyanophenyl)-N-(3-fluorophenyl)-1H-pyrazole-4-carboxamide]: the IC50 on ALDH1A1 [1] amounted to 0.009 µM; on ALDH1A2 [2] it was 0.065 µM. The figures for the concentration giving a half-maximal response (EC50) on ALDH1A2 [3] and at ALDH1A1 [4] were 0.245 µM and 0.14 µM, respectively.
